Experimental data: US20050027003A1, “Methods of therapeutic treatment using retinoids with reduced side effects” (Allergan, Inc., priority 2003, published 2005)

Key:
[1] = Example 8: PK and PD interactions of oral tazarotene and oral contraceptives; assay type: in vivo, human; conditions: up to 6 mg once daily
Experimental: It is the objective of this study to determine if there are pharmacokinetic (PK) and pharmacodynamic (PD) interactions between tazarotene and commonly prescribed oral contraceptives (OCs) when coadministered together.
Three separate clinical studies are conducted to evaluate the PK and PD interactions of oral tazarotene and OCs in healthy volunteers. Two studies evaluate daily doses of norethindrone (NE)/ethinyl estradiol (EE) with daily doses of tazarotene 1.1 mg (N=27) and 6 mg (N=29). The third study assesses the daily doses of norgestimate (NGM)/EE with daily doses of tazarotene 6 mg (N=26). OCs are administered for three consecutive menstrual cycles. Daily doses of tazarotene are started during the 2nd cycle and continued through the end of the studies. PK parameters for EE, NE, and NGM (AUC0-24 and Cmax) are determined before tazarotene dosing and after tazarotene dosing on day 6 of the 2nd and 3rd cycles. Serum concentrations of luteinizing hormone (LH) and follicle-stimulating hormone (FSH)-markers of contraceptive efficacy are also evaluated before tazarotene dosing and after tazarotene dosing on days 2, 4, and 6 of the 2nd and 3rd cycles. Serum progesterone levels are assessed on days 18 and 20 of the 2nd and 3rd cycles. […]

[2] = system: patients with severe nodulocystic acne; experiment: Example 10: placebo-controlled parallel-group study of oral tazarotene in severe nodulocystic acne; assay type: in vivo, human; conditions: for patients withdrawing due to adverse events: placebo 0%
Source text: A multicenter, double-blind, randomized, placebo-controlled parallel-group study is undertaken to determine the efficacy of orally administered tazarotene in treating severe nodulocystic acne.
In addition, washout periods for other medications for this study are: 1 week for vitamin A supplements >5000 IU; 2 weeks for topical anti-acne medications (e.g., retinoids, azelaic acid, benzoyl peroxide); 2 weeks for topical or systemic antibiotic therapy that may alter the course of acne; and 6 months for systemic retinoids.
Patients are randomized to receive placebo or oral tazarotene (0.75, 1.5, 3, or 6 mg), in a 1:1:1:1:1 ratio once daily for 24 weeks. After this, the patients are followed without treatment for an additional 12 weeks. Patients discontinuing from the treatment period due to adverse effects or lack of efficacy are eligible for entry into the post-treatment phase.
In the study, overall acne severity is rated as: none (no inflammatory acne lesions); mild (few to several papules or pustules, no nodulocystic lesions); moderate (several to many papules or pustules, few to several nodulocystic lesions); and severe (numerous or extensive papules or pustules, many, for example, at least about 5 or at least about 10, nodulocystic lesions).
Treatment success is defined as at least moderate (about 50%) improvement on the following 7-point global response scale: • 0=completely cleared • 1=almost cleared (about 90% improvement) • 2=marked response (about 75% improvement) • 3=moderate response (about 50% improvement) • 4=slight response (about 25% improvement) • 5=condition unchanged • 6=condition worsened
In this study, facial nodulocystic lesion count includes lesions greater than 5 mm in size. Facial papular/pustular lesion count includes lesions less than or equal to 5 mm in size. Facial non-inflammatory lesion count includes open and closed comedones.
Sebum output is assessed every 4 weeks at selected centers using the Sebutape® patches, sold by Cuderm Corporation. Urinalysis, chemistry, and hematology values are monitored. Bone formation and resorption assessments (serum bone alkaline phosphatase and serum amino terminal telopeptides, respectively) at selected centers are monitored.
Bone mineral density of spine and proximal femur at selected centers is monitored. Ligament calcification or osteophyte formation (lateral X-ray of the cervical and thoracic spine, and ankle calcaneous) is monitored. Epiphyseal growth plate closure (internal oblique X-ray of the ankle in patients less than or equal to 21 years old) is monitored.

[3] = 0.75 to 6 mg once daily, 24 weeks

## CCOC(=O)c1ccc(C#Cc2ccc3c(c2)C(C)(C)CCS3)nc1 [tazarotene]
[1]
  effect on PK or efficacy of NE/EE and NGM/EE oral contraceptives: does not affect
[2]; 0.75 mg group (2/35)
  patients withdrawing due to adverse events: 6%
[2]; 1.5 mg group (0/37)
  patients withdrawing due to adverse events: 0%
[2]; 3 mg and 6 mg, week 24 and throughout post-treatment phase, p≦0.05
  incidence of treatment success (≧50% global improvement) vs placebo: significantly higher incidence
[2]; 3 mg group (2/37)
  patients withdrawing due to adverse events: 5%
[2]; 6 mg group (1/36)
  patients withdrawing due to adverse events: 3%
[2]; 6 mg group, end of the post-treatment phase
  percentage of patients with at least a 90% reduction in facial nodulocystic lesion count vs placebo: significant superiority over placebo
[2]; 6 mg, week 16 until end of post-treatment phase, p≦0.01
  reduction of overall acne severity: significantly more than placebo
[2]; [3]
  bone formation and resorption (serum bone alkaline phosphatase, serum amino terminal telopeptides): do not appear to be altered
  changes in urinalysis, chemistry, or hematology measures (incl. liver function tests, triglycerides, total cholesterol, HDL cholesterol): None of the treatment groups show any consistent clinically significant changes
[2]; from week 8 onward
  reductions in number of facial papules or pustules and facial non-inflammatory acne lesions vs placebo: consistently greater reductions
  reductions in number of total facial nodulocystic lesions vs placebo: consistently greater reductions
[2]; once-daily doses of 1.5, 3, and 6 mg
  efficacy in severe nodulocystic acne: efficacious
